Source: patent EP0880540B1, “17-BETA-CYCLOPROPYL(AMINO/OXY) 4-AZA STEROIDS AS ACTIVE INHIBITORS OF TESTOSTERONE 5-ALPHA-REDUCTASE AND C17-20-LYASE” (Aventis Pharmaceuticals Inc., priority 1996, dated 1997)

Key:
[1] = biological target: T1, cynomolgus monkey prostatic 5α-reductase (Macaca fascicularis, UniProt Q28892); experiment: In vitro 5α-reductase assay, prostate microsomes; format: biochemical; details: mean of duplicates
T1 construct: microsomal preparations of the 5α-reductase enzyme from laboratory animal prostate tissue; from tissue; host or cells: cynomolgus monkey prostate, microsomes
T1 sequence (Q28892 1-254): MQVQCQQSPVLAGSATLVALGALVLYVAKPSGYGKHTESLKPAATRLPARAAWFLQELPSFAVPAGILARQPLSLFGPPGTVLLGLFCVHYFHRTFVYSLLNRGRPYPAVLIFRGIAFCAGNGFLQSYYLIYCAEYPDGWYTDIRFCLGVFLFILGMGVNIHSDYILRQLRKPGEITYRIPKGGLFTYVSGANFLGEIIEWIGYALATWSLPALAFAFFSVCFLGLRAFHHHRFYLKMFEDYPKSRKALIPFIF
Procedure: In vitro 5α-reductase assays: The activity of the present compounds as inhibitors of steroid 5α-reductase was determined using microsomal preparations of the 5α-reductase enzyme from laboratory animal prostate tissue. Specifically, microsomes were isolated from cynomolgus monkey prostate tissue. Protein concentration of the microsomal preparations was determined prior to use of the samples. Individual assays of cynomolgus monkey prostatic 5α-reductase activity contained 0.1 M potassium phosphate-sodium citrate buffer, pH 5.6 1.0% (w/v) bovine serum albumin, […] sodium EDTA, 4 µg of microsomal protein, 1.0 mM NADPH, 5.0 mM glucose-6-phosphate, 1 IU/mL glucose-6-phosphate dehydrogenase, [1,2-^3H]-testosterone (0.15 µCi) plus unlabeled testosterone to yield 0.015 µM (Km = 0.015 µM to 0.091 µM in multiple determinations), and test compound which was dissolved in DMSO then diluted in 0.1 M potassium phosphate-sodium citrate buffer, pH 5.6, to yield a final assay concentration of 0.1% (v/v) DMSO. The same buffer and DMSO without test compound were used in control assays. Background radioactivity was determined from assays containing all components except enzyme. Assays were performed in duplicate. Microsomes, 0.1 M potassium phosphate-sodium citrate buffer, pH 5.6, and test compound were preincubated at 37°C. Aliquots of 180 µL were removed after 0 or 40 minutes of preincubation and added to […] of testosterone substrate suspended in 0.1 M potassium phosphate-sodium citrate buffer, pH 5.6, containing 10% (v/v) DMSO. Remaining enzyme activity was assayed for 10 minutes at 37°C in a Dubnoff shaker incubator.
The reactions were terminated by the addition of 5 mL CHCl3:methanol (2:1) and 0.9 mL water. Carrier steroids were added in the form of 2.5 µg each of testosterone, dihydrotestosterone, and 3,17-androstanediol. Steroid metabolites were then extracted according to the procedure of Moore and Wilson (Methods in Enzymol., O'Malley, B.W. and Hardman, J.G. eds., 36, 1975, pp. 466-474), the organic phase containing the steroids was evaporated using nitrogen gas, the residues were dissolved in 3% (v/v) isopropanol in hexane. The steroids were then separated by normal phase HPLC on a LiCrosorb® DIOL derivatized silica gel column (10 µm; 4 x 250 mm) with a 3% to 7.5% isopropanol in hexane gradient, followed by isocratic conditions of […] isopropanol in hexane. Radioactivity in the steroid peaks was measured using a Packard Radiomatic model HS Flo-One detector. When the compound were tested using the above procedures with cynomolgus monkey 5α-reductase, the following results were obtained: Table 2: […]

[2] = tested on: Dunning H Tumor; experiment: Dunning H tumor growth in rats; format: in vivo, male Copenhagen rats; details: MDL 105831 15 mg/kg/day PO, MDL 15910 50 mg/kg/day PO
Excerpt: As described in J.T. Isaacs & D.S. Coffey, Cancer Res. 41:5070-5075 (1981); W.J. Ellis & J.T. Issacs, Cancer Res. 45:6041-6050 (1985); T.W. Bedding & A.V. Schally, The Prostate 6:219-232 (1985) and P.E. Juniewicz et al. The Prostate 18:105-115 (1991), male Copenhagen rats were obtained from HARLAN-SPRAGUE-DAWLEY Inc. (Indianapolis, IN), and were individually housed in suspended wire cages and provided laboratory rodent chow (Purina 5001 pellets, Purina Mills, St. Louis, MO) and deionized water ad libum. The rats were anesthetized using sodium pentobarbital and the hair was clipped from the back dorsal area. Tumors from donor Copenhagen rats were cut into fragments of 10 mm^3 and implanted subcutaneously (one site per rat) into the prepared dorsal area.
Animals were selected (105 days post implantation) for the treatment phase based on tumor size. Ten animals were anesthetized with sodium pentobarbital and bilaterally castrated. The remaining animals were assigned to treatment groups (ten per group) based on mean group tumor size. Animals were kept separate throughout the study. The tested compounds were prepared in solution or suspension in a lecithin vehicle (L-α-phosphatidylcholine type XV-E) containing methylparaben and propylparaben. All treatments were performed by oral gavage (per os) at 2 cc/kg each day of study. Tumor size and rat body weights were recorded every seven days over a period of 35 days. Twenty-four hours after the last treatment animals were euthenized by CO2 and the tumors, prostate, seminal vesicles and testes were removed and weighed. In Table 4, average tumor growth is determined from the corrected group means over a 35 day period after treatment was started. […] The animals eliminated from the calculation of the corrected means were in Figure 6, animals 8, 9, 10; in Figure 7, animals 18, 19 and 20; in Figure 8, animals 27, 28, 29 and 30; and in Figure 9, animals 37, 39 and 40. The castrated controls in Figure 10 present a different problem. Here it is believed that the different tumor volumes observed throughout the group is attributable to the different sizes at the beginning of the study. Since the mean variance here is clearly attributable to factors other than the effect of the castration itself, animals 47, 48, 49 and 50 were deleted from the corrected mean. Of these, animal 47 died during the treatment period.
Table 4 indicates the average daily growth rate, measured from the corrected mean tumor size on day 35 and day 0, comparing MDL 105831 and flutamide (MDL 15910), a known androgen receptor antagonist. […]

| Structure (SMILES) | inhibition at 0.1 µM ([1]; preincubation 0 min) [%] | inhibition at 0.1 µM ([1]; preincubation 40 min) [%] | inhibition at 1 µM ([1]; preincubation 0 min) [%] | inhibition at 1 µM ([1]; preincubation 40 min) [%] | inhibition at 10 µM ([1]; preincubation 0 min) [%] | inhibition at 10 µM ([1]; preincubation 40 min) [%] | Tumor Growth in Dunning H Rat, Day 0 ([2]; Day 0 (baseline), corrected group mean) [mm^3] | Tumor Growth in Dunning H Rat, Day 7 ([2]; Day 7, corrected group mean) [mm^3] | Tumor Growth in Dunning H Rat, Day 16 ([2]; Day 16, corrected group mean) [mm^3] | Tumor Growth in Dunning H Rat, Day 21 ([2]; Day 21, corrected group mean) [mm^3] | Tumor Growth in Dunning H Rat, Day 29 ([2]; Day 29, corrected group mean) [mm^3] | Tumor Growth in Dunning H Rat, Day 35 ([2]; Day 35, corrected group mean) [mm^3] | Δv/Δt (day 35-day 0) ([2]; average daily growth rate from corrected mean tumor size) [mm^3/day] |
| --- | --- | --- | --- | --- | --- | --- | --- | --- | --- | --- | --- | --- | --- |
| CC12CCC3C(CC[C@H]4NC(=O)CCC34C)C1CC[C@@H]2OC1CC1 (stereo partly drawn) [MDL 103,432, 17β-Cyclopropyloxy-4-aza-5α-androstan-3-one] | 78.7 | 80 | 98.7 | 99.3 | 99.4 | 99.4 |  |  |  |  |  |  |  |
| C[C@]12CC[C@H]3[C@@H](CC=C4NC(=O)CC[C@@]43C)[C@@H]1CC[C@@H]2NC1CC1 [MDL 105,831, 17β-Cyclopropylamino-4-aza-androst-5-en-3-one] |  |  |  |  |  |  | 328.40 | 389.90 | 497.20 | 759.40 | 1135.80 | 1041.60 | 20.38 |
